US12692238B2, “Substituted pyridazinone herbicides” (FMC CORPORATION, priority 2020, dated 2026)
Like-named read-outs stand apart in the source and are kept apart here.

Key:
Assay type in all cases: in vivo
[1] = test system: barnyardgrass (Echinochloa crus-galli); test: Test A preemergence, barnyardgrass; details: 10 days
Outline: (§1)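 Seeds sown in loam–sand blend received a directed soil spray preemergence; postemergence plants at 2 to 10 cm, one- to two-leaf stage, were sprayed. Compounds were formulated in non-phytotoxic solvent with surfactant. After 10 days in greenhouse, injury was rated visually versus untreated controls, 0 (no effect) to 100 (complete control).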

[2] = test system: foxtail, giant (giant foxtail, Setaria faberi); test: Test A preemergence, foxtail, giant; details: Setaria faberi, pre-emergence, 240 h, 0 to 100 scale, 10 days, read-out: Plant response rating, Foxtail, Giant; for pest or weed control at 31 g/ha: 31 g ai/ha; for pest or weed control at 125 g/ha: 125 g ai/ha
Outline: as §1

kochia (Bassia scoparia) = test: Test A preemergence, kochia; details: Bassia scoparia, pre-emergence, 240 h, 0 to 100 scale, 10 days, read-out: Plant response rating, Kochia; for pest or weed control at 31 g/ha: 31 g ai/ha; for pest or weed control at 125 g/ha: 125 g ai/ha
Outline: as §1

[3] = test system: redroot pigweed (Amaranthus retroflexus); test: Test A preemergence, redroot pigweed; details: 0 to 100 scale, 10 days
Outline: as §1

[4] = test system: ragweed (common ragweed, Ambrosia artemisiifolia); test: Test A preemergence, ragweed; details: Ambrosia artemisiifolia, pre-emergence, 240 h, 0 to 100 scale, 10 days, read-out: Plant response rating, Ragweed; for pest or weed control at 31 g/ha: 31 g ai/ha; for pest or weed control at 125 g/ha: 125 g ai/ha
Outline: as §1

[5] = test system: ryegrass, Italian (Italian ryegrass, Lolium multiflorum); test: Test A preemergence, ryegrass, Italian; details: Lolium multiflorum, pre-emergence, 240 h, 0 to 100 scale, 10 days, read-out: Plant response rating, Ryegrass, Italian; for pest or weed control at 31 g/ha: 31 g ai/ha; for pest or weed control at 125 g/ha: 125 g ai/ha
Outline: as §1

[6] = test system: barnyardgrass (Echinochloa crus-galli); test: Test A postemergence, barnyardgrass; details: 10 days
Outline: as §1

[7] = test system: blackgrass (Alopecurus myosuroides); test: Test A postemergence, blackgrass; details: Alopecurus myosuroides, post-emergence, 240 h, 10 days, read-out: Plant response rating, Blackgrass; for pest or weed control at 31 g/ha: 31 g ai/ha; for pest or weed control at 125 g/ha: 125 g ai/ha
Outline: as §1

corn (Zea mays) = test: Test A postemergence, corn; details: Zea mays, post-emergence, 240 h, 10 days; for Corn plant response rating (crop injury, 0 = no effect, 100 = complete kill) at 31 g/ha: 31 g ai/ha; for Corn plant response rating (crop injury, 0 = no effect, 100 = complete kill) at 125 g/ha: 125 g ai/ha
Outline: as §1

[8] = test system: foxtail, giant (giant foxtail, Setaria faberi); test: Test A postemergence, foxtail, giant; details: Setaria faberi, post-emergence, 240 h, 10 days, read-out: Plant response rating, Foxtail, Giant; for pest or weed control at 31 g/ha: 31 g ai/ha; for pest or weed control at 125 g/ha: 125 g ai/ha
Outline: as §1

[9] = test system: redroot pigweed (Amaranthus retroflexus); test: Test A postemergence, redroot pigweed; details: 10 days
Outline: as §1

[10] = test system: ragweed (common ragweed, Ambrosia artemisiifolia); test: Test A postemergence, ragweed; details: Ambrosia artemisiifolia, post-emergence, 240 h, 10 days, read-out: Plant response rating, Ragweed; for pest or weed control at 31 g/ha: 31 g ai/ha, postemergence, 0 to 100 scale (0 no effect, 100 complete control); for pest or weed control at 125 g/ha: Postemergence, 125 g ai/ha, 0 to 100 scale
Outline: as §1

[11] = test system: ryegrass, Italian (Italian ryegrass, Lolium multiflorum); test: Test A postemergence, ryegrass, Italian; details: Lolium multiflorum, post-emergence, 240 h, 10 days, read-out: Plant response rating, Ryegrass, Italian; for pest or weed control at 31 g/ha: 31 g ai/ha, postemergence, 0 to 100 scale (0 no effect, 100 complete control); for pest or weed control at 125 g/ha: Postemergence, 125 g ai/ha, 0 to 100 scale
Outline: as §1

[12] = test system: galium (catchweed bedstraw, Galium aparine); test: Test A postemergence, galium; details: Galium, post-emergence, 240 h, 10 days, read-out: Plant response rating, Galium; for pest or weed control at 31 g/ha: 31 g ai/ha, postemergence, 0 to 100 scale (0 no effect, 100 complete control); for pest or weed control at 125 g/ha: Postemergence, 125 g ai/ha, 0 to 100 scale
Outline: as §1

[13] = test system: ducksalad (Heteranthera limosa); test: Test B flooded paddy test, ducksalad; details: Heteranthera limosa; 250 g ai/ha, Flood; visually evaluated after 10 to 14 days; read-out: Plant response rating, Ducksalad (0 to 100 scale where 0 is no effect and 100 is complete control)
Outline: (§2)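 Application into floodwater (3 cm over soil) at the 2-leaf stage, with the depth held constant, followed by greenhouse growth for 10–14 days. Percent control was estimated visually versus controls, where 100 is complete control.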

[14] = test system: sedge, umbrella (small-flower umbrella sedge, Cyperus difformis); test: Test B flooded paddy test, sedge, umbrella; details: Cyperus difformis; 250 g ai/ha, Flood; visually evaluated after 10 to 14 days; read-out: Plant response rating, Sedge, Umbrella (0 to 100 scale where 0 is no effect and 100 is complete control)
Outline: as §2

[15] = 125 g ai/ha, 0 to 100 scale (0 no effect, 100 complete control)
[16] = 31 g ai/ha, postemergence, 0 to 100 scale (0 no effect, 100 complete control)
[17] = Postemergence, 125 g ai/ha, 0 to 100 scale
[18] = postemergence, 0 to 100 scale (0 no effect, 100 complete control)
[19] = Postemergence, 31 g ai/ha, 0 to 100 scale

Row | SMILES | Plant response rating, Barnyardgrass ([1]; 31 g ai/ha, 0 to 100 scale) | Plant response rating, Barnyardgrass [1, 15] | pest or weed control at 31 g/ha (kochia (Bassia scoparia)) [%] | pest or weed control at 125 g/ha (kochia (Bassia scoparia)) [%] | Plant response rating, Pigweed, Redroot ([3]; 31 g ai/ha) | Plant response rating, Pigweed, Redroot ([3]; 125 g ai/ha) | pest or weed control at 31 g/ha [5] [%] | pest or weed control at 125 g/ha [5] [%] | Plant response rating, Barnyardgrass [6, 17] | pest or weed control at 125 g/ha ([7]; Postemergence, 0 to 100 scale) [%] | Corn plant response rating (crop injury, 0 = no effect, 100 = complete kill) at 125 g/ha (corn (Zea mays); Postemergence, 0 to 100 scale) [%] | Plant response rating, Pigweed, Redroot [9, 16] | Plant response rating, Pigweed, Redroot [9, 17] | pest or weed control at 31 g/ha [10] [%] | pest or weed control at 125 g/ha [10] [%] | pest or weed control at 31 g/ha [11] [%] | pest or weed control at 125 g/ha [11] [%] | pest or weed control at 31 g/ha [12] [%] | pest or weed control at 125 g/ha [12] [%] | pest or weed control at 250 g/ha [13] [%] | further results
1 | CC(=O)OCOc1c(C)nn(C)c(=O)c1-c1c2cc(C)ccc2cc2ccc(F)cc12 [Compound 24, 5-[(acetyloxy)methoxy]-4-(2-fluoro-7-methyl-9-anthracenyl)-2,6-dimethyl-3(2H)-pyridazinone] | 60 | 90 | 70 | 90 | 100 | 100 | 50 | 80 | 90 | 20 | 20 | 100 | 100 | 80 | 100 | 90 | 90 | 100 | 100 | 75 | pest or weed control at 31 g/ha [2]: 90%; pest or weed control at 125 g/ha [2]: 100%; pest or weed control at 31 g/ha [4]: 90%; pest or weed control at 125 g/ha [4]: 90%; Plant response rating, Barnyardgrass [6, 16]: 80; pest or weed control at 31 g/ha [7, 18]: 0%; Corn plant response rating (crop injury, 0 = no effect, 100 = complete kill) at 31 g/ha (corn (Zea mays); [18]): 10%; pest or weed control at 31 g/ha [8, 18]: 90%; pest or weed control at 125 g/ha ([8]; Postemergence, 0 to 100 scale): 90%; pest or weed control at 250 g/ha [14]: 80%
2 | CC(=O)OCOc1c(Cl)nn(C)c(=O)c1-c1c2ccccc2cc2ccccc12 [Compound 10, 5-[(acetyloxy)methoxy]-4-(9-anthracenyl)-6-chloro-2-methyl-3(2H)-pyridazinone] | 0 | 0 | 0 | 0 | 100 | 100 | 0 | 10 | 10 | 0 | 20 | 100 | 100 | 100 | 100 | 0 | 0 | 90 | 100 | 95 | pest or weed control at 31 g/ha [2]: 0%; pest or weed control at 125 g/ha [2]: 20%; pest or weed control at 31 g/ha [4]: 40%; pest or weed control at 125 g/ha [4]: 40%; Plant response rating, Barnyardgrass [6, 19]: 20; pest or weed control at 31 g/ha ([7]; Postemergence, 0 to 100 scale): 30%; Corn plant response rating (crop injury, 0 = no effect, 100 = complete kill) at 31 g/ha (corn (Zea mays); Postemergence, 0 to 100 scale): 10%; pest or weed control at 31 g/ha ([8]; Postemergence, 0 to 100 scale): 10%; pest or weed control at 125 g/ha ([8]; Postemergence, 0 to 100 scale): 50%; pest or weed control at 250 g/ha [14]: 95%
3 | CC(=O)OCOc1c(Cl)nn(C)c(=O)c1-c1c(C)ccc2ccccc12 [Compound 5, 5-[(acetyloxy)methoxy]-6-chloro-2-methyl-4-(2-methyl-1-naphthalenyl)-3(2H)-pyridazinone] | 80 | 100 | 40 | 70 | 100 | 100 | 70 | 100 | 80 | 50 | 10 | 90 | 100 | 80 | 90 | 30 | 80 | 100 | 100 | 80 | pest or weed control at 31 g/ha [4]: 100%; pest or weed control at 125 g/ha [4]: 100%; Plant response rating, Barnyardgrass [6, 19]: 40; pest or weed control at 31 g/ha ([7]; Postemergence, 0 to 100 scale): 20%; Corn plant response rating (crop injury, 0 = no effect, 100 = complete kill) at 31 g/ha (corn (Zea mays); Postemergence, 0 to 100 scale): 0%; pest or weed control at 250 g/ha [14]: 85%
4 | CC(=O)OCOc1c(Cl)nn(C)c(=O)c1-c1c2ccccc2c(Cl)c2ccccc12 [Compound 11, 5-[(acetyloxy)methoxy]-6-chloro-4-(10-chloro-9-anthracenyl)-2-methyl-3(2H)-pyridazinone] | 20 | 30 | 0 | 10 | 100 | 100 | 0 | 30 | 30 | 10 | 10 | 100 | 100 | 100 | 100 | 10 | 70 | 100 | 100 | 80 | pest or weed control at 31 g/ha [2]: 10%; pest or weed control at 125 g/ha [2]: 60%; Plant response rating, Barnyardgrass [6, 19]: 20; pest or weed control at 31 g/ha ([7]; Postemergence, 0 to 100 scale): 40%; Corn plant response rating (crop injury, 0 = no effect, 100 = complete kill) at 31 g/ha (corn (Zea mays); Postemergence, 0 to 100 scale): 0%; pest or weed control at 31 g/ha ([8]; Postemergence, 0 to 100 scale): 30%; pest or weed control at 125 g/ha ([8]; Postemergence, 0 to 100 scale): 80%; pest or weed control at 250 g/ha [14]: 95%
